The source made the active and inactive calls.
How the values were obtained:
Nonstructural protein 1 = Nonstructural protein 1 (Influenza A virus, UniProt Q194T2); assay type: functional, Influenza A virus (A/California/07/2009(H1N1))
Mu-type opioid receptor = Mu-type opioid receptor (Homo sapiens, UniProt P35372); experiment: Counterscreen for agonists of heterodimerization of the mu 1 (OPRM1) and delta 1 (OPRD1) opioid receptors: Luminescence-based cell-based high throughput dose response assay to identify agonists of OPRM1 homodimerization.; assay type: functional;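 also: U2OS cells expressing OPRM1 and beta-arrestin as split beta-galactosidase partners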
[1] = target: Delta-type opioid receptor (Homo sapiens, UniProt P41143); experiment: Counterscreen for agonists of heterodimerization of the mu 1 (OPRM1) and delta 1 (OPRD1) opioid receptors: Luminescence-based cell-based high throughput dose response assay to identify agonists of OPRD1 homodimerization. [Related pubchem assays (depositor defined):AID504326, AID504355, AID504692, AID504904, AID504905]; assay type: functional
[2] = target: T1, Short transient receptor potential channel 4 (Mus musculus, UniProt Q9QUQ5); experiment: calcium entry via TRPC4 opening agents – cell-based, HEK293 TRPC4/mu-opioid, Fluo-4 calcium, dose response (AID 434937); assay type: functional
T1 sequence (Q9QUQ5 whole entry): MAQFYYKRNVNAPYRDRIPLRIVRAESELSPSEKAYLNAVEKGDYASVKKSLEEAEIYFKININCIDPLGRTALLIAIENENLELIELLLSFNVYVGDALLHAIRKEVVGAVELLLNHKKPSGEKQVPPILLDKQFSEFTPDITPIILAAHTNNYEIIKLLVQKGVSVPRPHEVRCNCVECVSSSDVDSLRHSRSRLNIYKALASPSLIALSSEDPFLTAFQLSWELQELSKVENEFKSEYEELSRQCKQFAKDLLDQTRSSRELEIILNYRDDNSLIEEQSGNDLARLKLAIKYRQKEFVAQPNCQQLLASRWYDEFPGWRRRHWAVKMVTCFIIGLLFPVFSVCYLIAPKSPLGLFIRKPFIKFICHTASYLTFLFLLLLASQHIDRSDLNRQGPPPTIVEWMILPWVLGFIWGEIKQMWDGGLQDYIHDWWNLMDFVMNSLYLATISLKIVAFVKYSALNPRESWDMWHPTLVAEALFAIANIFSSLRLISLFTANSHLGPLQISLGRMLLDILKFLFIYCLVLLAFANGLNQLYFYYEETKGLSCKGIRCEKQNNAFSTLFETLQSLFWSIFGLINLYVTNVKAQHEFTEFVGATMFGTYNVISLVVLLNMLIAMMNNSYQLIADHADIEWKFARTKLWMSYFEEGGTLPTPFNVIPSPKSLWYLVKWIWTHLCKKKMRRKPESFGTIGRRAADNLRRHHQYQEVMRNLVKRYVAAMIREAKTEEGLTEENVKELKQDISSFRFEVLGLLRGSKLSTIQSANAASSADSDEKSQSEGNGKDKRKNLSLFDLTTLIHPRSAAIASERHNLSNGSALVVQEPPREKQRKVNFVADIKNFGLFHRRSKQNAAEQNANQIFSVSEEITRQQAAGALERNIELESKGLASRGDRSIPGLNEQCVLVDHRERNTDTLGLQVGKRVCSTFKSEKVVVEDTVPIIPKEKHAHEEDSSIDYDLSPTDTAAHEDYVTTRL

[3] = Trypanosoma cruzi growth suppression in host cells – NIH3T3 host cells, beta-gal luminescence, confirmation (AID 2044); assay type: functional, cell-based;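 also: intracellular parasites grown in NIH/3T3 mouse fibroblasts as host cells; luminescent beta-galactosidase reporter signal from transgenic T. cruzi replicating inside host cells; inhibitors lower the luminescence signal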
[4] = NIH3T3 cell viability loss – ATP luminescence, mouse fibroblasts, counter-screen, dose response (AID 2010); assay type: functional, cell-based;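 also: cells exposed to compound for about 90 hours before reading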
[5] = target: 5-hydroxytryptamine receptor 5A (Homo sapiens, UniProt P47898); experiment: Counterscreen for agonists of OPRM1-OPRD1 heterodimerization: luminescence-based cell-based high throughput dose response assay to identify agonists of 5-hydroxytryptamine (serotonin) 5A receptor (HTR5A). [Related pubchem assays (depositor defined):AID504326, AID504355, AID504692, AID504904, AID504905]; assay type: functional
Escherichia coli [6] = experiment: microbe, parasite or virus in culture
Escherichia coli [7] = experiment: microbe, parasite or virus in culture; remark: listed apart in the source
A-375 [8] = experiment: proliferation inhibition in MITF-low A375 cells – cell-based, cherry-pick samples, set 2, counter-screen for MITF modulator project, dose response (AID 540335); assay type: functional; conditions: Homo sapiens
A-375 [9] = experiment: MITF: Counter assay: A375 proliferation Measured in Cell-Based System Using Plate Reader - 2084-03_Inhibitor_Dose_DryPowder_Activity. [Related pubchem assays (depositor defined):AID488944]; assay type: functional; conditions: Homo sapiens
CAAX prenyl protease 2 = CAAX prenyl protease 2 (Homo sapiens, UniProt Q9Y256); experiment: inhibition of Ras-converting CAAX protease Rce1 – biochemical, yeast membranes, quenched-peptide fluorescence, cherry-pick, dose response (AID 588849)
Trypsin = Trypsin (Sus scrofa, UniProt P00761); experiment: trypsin protease activity blockade – biochemical, quenched peptide fluorescence, cherry-pick, selectivity assay for Rce1 protease inhibitor project, dose response (AID 488789)
[10] = target: Dual specificity protein kinase CLK1 (Homo sapiens, UniProt P49759); experiment: inhibition of human CLK1 activity – biochemical, cherry-picked samples, selectivity assay for Dyrk1A inhibitor project, dose response (AID 588811)
[11] = target: T2, Sentrin-specific protease 8 (Homo sapiens, UniProt Q96LD8); experiment: inhibition of sentrin protease 8 – biochemical, luminescence, set 2, SAR follow-up (AID 588601); assay type: functional
T2 sequence (Q96LD8 whole entry): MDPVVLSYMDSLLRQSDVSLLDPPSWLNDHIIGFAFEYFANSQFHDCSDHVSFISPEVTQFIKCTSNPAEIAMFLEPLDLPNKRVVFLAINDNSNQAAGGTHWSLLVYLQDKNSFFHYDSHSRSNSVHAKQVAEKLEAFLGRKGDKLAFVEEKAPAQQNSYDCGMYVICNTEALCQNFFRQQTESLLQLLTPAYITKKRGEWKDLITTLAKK

[12] = target: T3, Sentrin-specific protease 6 (Homo sapiens, UniProt Q9GZR1); experiment: inhibition of human SENP6 catalytic domain – biochemical, luminescence, set 2, SAR follow-up (AID 588598); assay type: functional
T3 sequence (Q9GZR1 whole entry): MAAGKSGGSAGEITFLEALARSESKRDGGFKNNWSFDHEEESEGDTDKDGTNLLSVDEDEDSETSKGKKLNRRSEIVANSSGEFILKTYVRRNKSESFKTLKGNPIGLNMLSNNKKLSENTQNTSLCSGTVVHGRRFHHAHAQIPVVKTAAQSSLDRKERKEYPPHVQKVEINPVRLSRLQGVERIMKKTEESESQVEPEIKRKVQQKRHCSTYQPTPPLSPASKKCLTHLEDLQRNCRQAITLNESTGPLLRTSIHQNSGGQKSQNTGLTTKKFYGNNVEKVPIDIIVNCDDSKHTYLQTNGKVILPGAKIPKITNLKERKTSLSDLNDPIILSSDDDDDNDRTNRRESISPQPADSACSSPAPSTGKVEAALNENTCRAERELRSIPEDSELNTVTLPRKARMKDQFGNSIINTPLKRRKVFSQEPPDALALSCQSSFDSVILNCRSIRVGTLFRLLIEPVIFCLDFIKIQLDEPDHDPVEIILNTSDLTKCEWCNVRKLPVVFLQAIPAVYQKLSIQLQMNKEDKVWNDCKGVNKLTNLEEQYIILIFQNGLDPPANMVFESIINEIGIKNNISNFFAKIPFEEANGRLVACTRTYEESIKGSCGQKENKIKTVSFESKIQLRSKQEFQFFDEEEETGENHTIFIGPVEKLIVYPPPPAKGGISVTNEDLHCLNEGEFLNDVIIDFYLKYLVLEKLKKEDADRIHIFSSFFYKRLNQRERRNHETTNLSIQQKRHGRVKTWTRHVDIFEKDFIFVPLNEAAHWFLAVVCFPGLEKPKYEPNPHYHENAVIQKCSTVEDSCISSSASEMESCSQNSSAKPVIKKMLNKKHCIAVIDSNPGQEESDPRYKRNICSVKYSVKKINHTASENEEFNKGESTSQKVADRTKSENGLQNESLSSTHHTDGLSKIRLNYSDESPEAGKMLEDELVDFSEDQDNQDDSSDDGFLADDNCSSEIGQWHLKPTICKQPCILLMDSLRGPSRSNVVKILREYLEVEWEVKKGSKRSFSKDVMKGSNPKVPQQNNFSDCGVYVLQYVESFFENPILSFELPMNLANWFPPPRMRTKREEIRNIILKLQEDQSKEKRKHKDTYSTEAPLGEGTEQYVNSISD

Caspase-3 = target: T4, Caspase-3 (Homo sapiens, UniProt P42574); experiment: inhibition of recombinant caspase-3 activity – biochemical, luminescence, set 2, selectivity assay for SENP protease inhibitor project, SAR follow-up (AID 588599); assay type: functional
T4 sequence (P42574 whole entry): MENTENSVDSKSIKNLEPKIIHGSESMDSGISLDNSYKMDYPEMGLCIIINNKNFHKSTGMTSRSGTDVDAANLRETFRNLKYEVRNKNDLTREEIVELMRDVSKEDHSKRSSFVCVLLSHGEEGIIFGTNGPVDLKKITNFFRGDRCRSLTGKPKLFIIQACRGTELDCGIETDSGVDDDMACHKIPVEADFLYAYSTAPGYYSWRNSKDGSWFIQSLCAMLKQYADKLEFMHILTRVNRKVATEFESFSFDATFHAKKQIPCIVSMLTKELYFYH

[13] = target: T5, Sentrin-specific protease 7 (Homo sapiens, UniProt Q9BQF6); experiment: inhibition of human SENP7 cleavage activity – biochemical, luminescence, set 2, SAR follow-up (AID 588600); assay type: functional
T5 sequence (Q9BQF6 whole entry): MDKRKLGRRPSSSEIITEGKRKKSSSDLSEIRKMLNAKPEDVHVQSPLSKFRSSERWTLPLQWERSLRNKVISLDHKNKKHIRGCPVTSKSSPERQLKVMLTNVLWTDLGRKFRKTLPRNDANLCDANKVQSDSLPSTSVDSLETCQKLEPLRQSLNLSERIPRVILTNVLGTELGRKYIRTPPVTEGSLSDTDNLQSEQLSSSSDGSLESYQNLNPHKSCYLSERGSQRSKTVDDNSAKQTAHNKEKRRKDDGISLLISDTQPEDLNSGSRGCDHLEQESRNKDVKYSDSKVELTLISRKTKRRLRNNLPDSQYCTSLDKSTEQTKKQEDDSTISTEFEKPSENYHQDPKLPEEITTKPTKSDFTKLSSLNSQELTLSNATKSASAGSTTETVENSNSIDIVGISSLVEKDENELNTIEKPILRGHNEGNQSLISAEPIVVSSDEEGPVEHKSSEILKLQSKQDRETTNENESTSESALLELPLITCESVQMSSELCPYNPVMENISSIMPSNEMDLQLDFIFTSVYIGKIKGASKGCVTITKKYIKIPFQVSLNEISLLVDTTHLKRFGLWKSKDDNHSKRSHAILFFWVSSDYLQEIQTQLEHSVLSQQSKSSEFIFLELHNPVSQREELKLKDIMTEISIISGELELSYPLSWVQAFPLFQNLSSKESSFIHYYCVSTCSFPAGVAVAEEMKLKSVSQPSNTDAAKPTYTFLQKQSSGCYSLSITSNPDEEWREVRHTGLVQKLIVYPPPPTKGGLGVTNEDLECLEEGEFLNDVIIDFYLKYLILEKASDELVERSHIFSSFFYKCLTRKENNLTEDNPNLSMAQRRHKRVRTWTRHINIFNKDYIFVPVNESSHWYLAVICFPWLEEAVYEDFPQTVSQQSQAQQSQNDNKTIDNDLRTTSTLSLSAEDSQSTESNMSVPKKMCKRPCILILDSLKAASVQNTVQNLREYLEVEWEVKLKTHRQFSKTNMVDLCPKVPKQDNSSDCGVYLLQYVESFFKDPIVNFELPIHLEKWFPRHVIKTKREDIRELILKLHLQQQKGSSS

Sequence of Mu-type opioid receptor (P35372 whole entry): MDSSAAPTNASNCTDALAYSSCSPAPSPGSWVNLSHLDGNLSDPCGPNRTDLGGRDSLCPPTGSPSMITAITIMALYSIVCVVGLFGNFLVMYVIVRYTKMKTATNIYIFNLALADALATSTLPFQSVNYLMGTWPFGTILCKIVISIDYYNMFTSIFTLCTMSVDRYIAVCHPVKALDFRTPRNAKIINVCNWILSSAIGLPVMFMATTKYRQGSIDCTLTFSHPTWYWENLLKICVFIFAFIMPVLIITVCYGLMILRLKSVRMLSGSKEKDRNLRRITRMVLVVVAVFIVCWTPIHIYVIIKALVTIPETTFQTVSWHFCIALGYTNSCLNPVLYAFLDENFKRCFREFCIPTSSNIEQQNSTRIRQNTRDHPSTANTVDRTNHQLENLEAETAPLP
Sequence of Dual specificity protein kinase CLK1 (P49759 whole entry): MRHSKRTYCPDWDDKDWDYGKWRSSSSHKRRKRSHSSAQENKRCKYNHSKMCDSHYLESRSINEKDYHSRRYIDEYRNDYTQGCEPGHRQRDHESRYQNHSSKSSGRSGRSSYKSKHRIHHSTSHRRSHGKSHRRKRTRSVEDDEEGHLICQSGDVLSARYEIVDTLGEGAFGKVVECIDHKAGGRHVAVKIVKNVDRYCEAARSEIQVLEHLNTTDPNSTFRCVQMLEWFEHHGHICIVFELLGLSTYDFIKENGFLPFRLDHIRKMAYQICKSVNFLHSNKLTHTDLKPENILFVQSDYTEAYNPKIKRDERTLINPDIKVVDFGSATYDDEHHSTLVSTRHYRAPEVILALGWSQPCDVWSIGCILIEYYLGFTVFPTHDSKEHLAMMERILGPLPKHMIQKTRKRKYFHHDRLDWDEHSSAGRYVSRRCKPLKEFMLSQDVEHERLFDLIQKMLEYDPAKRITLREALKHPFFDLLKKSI
Sequence of 5-hydroxytryptamine receptor 5A (P47898 whole entry): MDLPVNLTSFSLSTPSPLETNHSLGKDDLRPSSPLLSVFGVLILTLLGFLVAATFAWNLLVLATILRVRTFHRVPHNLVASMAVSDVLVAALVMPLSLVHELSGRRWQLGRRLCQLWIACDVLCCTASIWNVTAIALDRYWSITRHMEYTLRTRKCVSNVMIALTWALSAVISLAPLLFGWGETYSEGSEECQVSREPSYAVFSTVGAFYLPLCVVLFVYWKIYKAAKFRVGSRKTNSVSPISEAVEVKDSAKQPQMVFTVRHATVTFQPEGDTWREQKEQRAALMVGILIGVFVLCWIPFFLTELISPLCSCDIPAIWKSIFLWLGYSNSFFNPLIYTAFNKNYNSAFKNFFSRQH
Sequence of Delta-type opioid receptor (P41143 whole entry): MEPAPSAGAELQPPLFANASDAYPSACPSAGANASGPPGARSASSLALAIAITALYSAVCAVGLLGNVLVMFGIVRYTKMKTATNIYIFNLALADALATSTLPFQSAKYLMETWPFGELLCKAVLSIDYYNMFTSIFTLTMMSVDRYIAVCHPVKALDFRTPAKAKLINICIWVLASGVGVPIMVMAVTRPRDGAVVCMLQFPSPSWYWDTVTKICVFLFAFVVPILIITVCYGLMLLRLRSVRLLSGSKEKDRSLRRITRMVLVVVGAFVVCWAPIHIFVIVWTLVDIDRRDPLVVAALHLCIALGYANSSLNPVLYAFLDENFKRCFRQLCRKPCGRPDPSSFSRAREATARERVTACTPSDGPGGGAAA
Sequence of CAAX prenyl protease 2 (Q9Y256 whole entry): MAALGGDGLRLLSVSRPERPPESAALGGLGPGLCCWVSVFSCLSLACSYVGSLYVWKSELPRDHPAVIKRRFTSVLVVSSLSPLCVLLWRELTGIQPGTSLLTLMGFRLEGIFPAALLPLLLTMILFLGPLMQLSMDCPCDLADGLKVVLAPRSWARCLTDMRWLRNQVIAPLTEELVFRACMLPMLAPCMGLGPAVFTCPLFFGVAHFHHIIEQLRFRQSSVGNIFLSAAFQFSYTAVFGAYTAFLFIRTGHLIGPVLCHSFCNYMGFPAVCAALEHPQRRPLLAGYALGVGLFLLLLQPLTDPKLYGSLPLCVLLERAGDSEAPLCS
Sequence of Trypsin (P00761 whole entry): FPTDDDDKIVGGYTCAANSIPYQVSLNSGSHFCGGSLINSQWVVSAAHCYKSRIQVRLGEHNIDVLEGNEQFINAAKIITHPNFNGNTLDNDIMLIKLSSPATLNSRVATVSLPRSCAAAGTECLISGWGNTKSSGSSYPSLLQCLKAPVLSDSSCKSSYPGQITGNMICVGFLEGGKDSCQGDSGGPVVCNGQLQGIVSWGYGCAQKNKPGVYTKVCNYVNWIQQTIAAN
Sequence of Nonstructural protein 1 (Q194T2 whole entry): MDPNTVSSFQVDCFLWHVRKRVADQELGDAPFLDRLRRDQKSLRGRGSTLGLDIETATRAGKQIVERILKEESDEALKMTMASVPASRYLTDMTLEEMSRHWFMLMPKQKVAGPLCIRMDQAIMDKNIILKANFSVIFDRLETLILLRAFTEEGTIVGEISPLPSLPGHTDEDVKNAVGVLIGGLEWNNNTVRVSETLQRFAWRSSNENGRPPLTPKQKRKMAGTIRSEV

## Cc1cc(N2CCN(C)CC2)ccc1NC(=O)c1ccc(-c2ccc(Cl)cc2)o1
Nonstructural protein 1
  IC50: 44 µM (active)
Mu-type opioid receptor
  EC50: > 92.4 µM (inactive)
[1]
  EC50: > 92.4 µM (inactive)
[2]
  EC50: 0.749 µM (active)
[3]
  EC50: 0.254 µM (active)
[4]
  EC50: 9.64 µM (active)
[5]
  EC50: > 92.4 µM (inactive)

## O=C(CSC1=NCCS1)c1ccc(Cl)cc1
Escherichia coli [6]
  AC50: 28 µM (active)

## Cc1ccccc1OCC(=O)Nc1nnc(-c2ccncc2)s1
Escherichia coli [7]
  AC50: 39.7 µM (active)

## O=C(NCc1ccc2c(c1)OCO2)c1cc(O)nc2ccccc12
A-375 [8]
  AC50: > 35 µM (active)
A-375 [9]
  AC50: > 35 µM (active)

## Cc1cc(=O)oc2c3c(cc(OCC(=O)N4CCC(C(=O)O)CC4)c12)OC(C)(C)CC3
CAAX prenyl protease 2
  AC50: 1.28 µM (active)
Trypsin
  AC50: 1.51 µM (active)

## CC(Nc1nc(-c2cccnc2)nc2ccccc12)c1ccc(F)cc1 (centres undefined)
[10]
  AC50: 9.34 µM (active)
[3]
  EC50: 0.658 µM (active)
[4]
  EC50: 14.4 µM (active)

## Cc1ccc(CNc2ncnc3ccc(-c4ccc5c(c4)OCO5)cc23)o1
[10]
  AC50: 0.0226 µM (active)

## O=C(NCc1ccco1)c1ccc(COCC(F)(F)F)cc1
A-375 [8]
  AC50: > 35 µM (active)
A-375 [9]
  AC50: > 35 µM (active)

## CCOC(=O)c1c(-c2ccc(OC)cc2)oc2ccc(OC(=O)N(C)C)cc12
CAAX prenyl protease 2
  AC50: 6.46 µM (active)

## C=CCn1c(SCC(=O)NCc2ccc3c(c2)OCO3)nnc1-c1cccnc1
Escherichia coli [7]
  AC50: 50.2 µM (active)

## CN(C)CCCN(C(=O)c1ccc(S(=O)(=O)N2CCCCCC2)cc1)c1nc2c(F)cc(F)cc2s1
Mu-type opioid receptor
  EC50: 33.4 µM (inactive)
[1]
  EC50: > 92.4 µM (inactive)
[2]
  EC50: 5.31 µM (active)
[5]
  EC50: > 92.4 µM (inactive)

## CCOc1cccc2sc(NC(=O)c3ccc(C#N)cc3)nc12
[11]
  IC50: > 99 µM (inactive)
[12]
  IC50: > 99 µM (inactive)
Caspase-3
  IC50: > 99 µM (inactive)
[13]
  IC50: > 99 µM (inactive)

Source: ChEMBL document CHEMBL1201862, “PubChem BioAssay data set” (2004)
